According to patent US7456192B2, “3β-amino azabicyclooctane heteroaromatic amid derivatives preparation method and therapeutic uses thereof” (Pierre Fabre Medicament, priority 2001, dated 2008):
Counter-ions that a name gives are not always drawn. Like-named read-outs stand apart in the source and are kept apart here. Marks after values point to notes of the source that are not given here.

How the values were obtained:
[1] = test system: methylphenidate-induced behavior; test: Antagonism of methylphenidate-induced behavior in rats (chewing inhibition, normalization); format: in vivo, rat
Procedure: The compounds were tested in vivo (Table II) to measure their ability to antagonize methylphenidate-induced behavior in rats. […] Colpaert J. Pharmacol. Exp. Ther. 267, 181 (1993). This test characterizes the antipsychotic activity in a more in-depth manner than apomorphine effect antagonism, the test conventionally used.

[2] = biological target: T1, D2 type central dopaminergic receptor (Homo sapiens, UniProt P14416); test: biochemical
[3] = Cataleptic activity in rats, compound alone without methylphenidate; details: rat, in vivo
[4] = test system: catalepsy; test: as above; details: rat, i.p.; 3 or 5 animals
[5] = biological target: T1, D2 type central dopaminergic receptor; details: radioligand 3H-YM-09151-2
[6] = Rattus norvegicus, ip, read-out: Chewing inhibition ED50
[7] = Rattus norvegicus, ip, read-out: Normalization ED50
[8] = ip, rat, i.p., 3 or 5 animals, read-out: Chewing inhibition ED50
[9] = ip, rat, i.p., 3 or 5 animals, read-out: Normalization ED50
[10] = Rattus norvegicus, po, read-out: Chewing inhibition ED50
[11] = Rattus norvegicus, po, read-out: Normalization ED50

T1 sequence (P14416 whole entry): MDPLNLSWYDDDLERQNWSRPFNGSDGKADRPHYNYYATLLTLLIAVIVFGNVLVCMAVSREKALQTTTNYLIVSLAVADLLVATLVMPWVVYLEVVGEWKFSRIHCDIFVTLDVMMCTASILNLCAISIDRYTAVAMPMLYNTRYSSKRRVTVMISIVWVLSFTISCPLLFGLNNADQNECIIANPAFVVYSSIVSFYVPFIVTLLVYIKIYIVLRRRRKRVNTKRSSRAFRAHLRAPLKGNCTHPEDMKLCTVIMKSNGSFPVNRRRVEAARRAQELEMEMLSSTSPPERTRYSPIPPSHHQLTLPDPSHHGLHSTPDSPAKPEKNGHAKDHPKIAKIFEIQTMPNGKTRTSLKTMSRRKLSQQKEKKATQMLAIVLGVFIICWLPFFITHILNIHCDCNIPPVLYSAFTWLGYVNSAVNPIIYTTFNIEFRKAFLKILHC

Compound	ED50 [1, 6] [mg/kg]	ED50 [1, 7] [mg/kg]	Ki [2] [nM]	ED50 ([3]; ip) [mg/kg]	other results
Cc1nc2n(c(=O)c1CCN1CCC(c3noc4cc(F)ccc34)CC1)CCCC2 [Risperidone, reference compound]	0.25	2.8			
COc1c(C(=O)N[C@@H]2C[C@H]3CC[C@@H](C2)N3CC2CCCCC2)sc2ncccc12 [Example 10, 3-Methoxythieno[2,3-b]pyridine-2-carboxylic acid [8-cyclohexylmethyl-8-azabicyclo[3.2.1]oct-3β-yl]amide fumarate]	1.25	5	2.57	> 40	
CCN1CCCC1CNC(=O)c1cc(S(N)(=O)=O)ccc1OC (stereo not shown) [Sulpiride, reference compound]				> 160	ED50 [1, 8]: > 40 mg/kg; ED50 [1, 9]: > 40 mg/kg
CSc1c(C(=O)N[C@@H]2C[C@H]3CC[C@@H](C2)N3Cc2ccc(F)cc2)sc2nccnc12 [Example 32, 3-Methylsulfanylthieno[2,3-b]pyrazine-2-carboxylic acid [8-(4-fluorobenzyl)-8-azabicyclo[3.2.1]oct-3β-yl]amide hydrochloride]			0.676		ED50 ([3]; po): 1.25 mg/kg; ED50 [1, 10]: 0.08 mg/kg; ED50 [1, 11]: 0.31 mg/kg
CSc1c(C(=O)N[C@@H]2C[C@H]3CC[C@@H](C2)N3Cc2ccc(Cl)cc2)sc2nccnc12 [Example 31, 3-Methylsulfanylthieno[2,3-b]pyrazine-2-carboxylic acid [8-(4-chlorobenzyl)-8-azabicyclo[3.2.1]oct-3β-yl]amide hydrochloride]			2.04		ED50 ([3]; po): 1.25 mg/kg; ED50 [1, 10]: 0.31 mg/kg; ED50 [1, 11]: 0.31 mg/kg
COc1c(C(=O)N[C@@H]2C[C@H]3CC[C@@H](C2)N3Cc2ccc(F)cc2)sc2ncccc12 [Example 11, 3-Methoxythieno[2,3-b]pyridine-2-carboxylic acid [(8-(4-fluorobenzyl)-8-azabicyclo[3.2.1]oct-3β-yl)]amide hydrochloride]	0.08	0.31	0.776	> 40	
O=C(CCCN1CCC(O)(c2ccc(Cl)cc2)CC1)c1ccc(F)cc1 [Haloperidol, reference compound]				0.32	ED50 [1, 8]: 0.08 mg/kg; ED50 [1, 9]: 0.32 mg/kg
CSc1c(C(=O)N[C@@H]2C[C@H]3CC[C@@H](C2)N3Cc2ccccc2)sc2ncccc12 [Example 2, 3-Methylsulfanylthieno[2,3-b]pyridine-2-carboxylic acid (8-benzyl-8-azabicyclo[3.2.1]oct-3β-yl)amide hydrochloride]	0.08	0.56	0.447	1.8	
COc1c(C(=O)N[C@@H]2C[C@H]3CC[C@@H](C2)N3Cc2ccc(Cl)cc2)sc2ncccc12 [Example 8, 3-Methoxythieno[2,3-b]pyridine-2-carboxylic acid [8-(4-chlorobenzyl)-8-azabicyclo[3.2.1]oct-3β-yl]amide hydrochloride]	0.1	1.3	1.74	> 40	
COc1c(C(=O)N[C@@H]2C[C@H]3CC[C@@H](C2)N3Cc2ccc(F)cc2)sc2nccnc12 [Example 29, 3-Methoxythieno[2,3-b]pyrazine-2-carboxylic acid [8-(4-fluorobenzyl)-8-azabicyclo[3.2.1]oct-3β-yl]amide hydrochloride]			0.661		ED50 ([3]; po): 5 mg/kg; ED50 [1, 10]: 0.08 mg/kg; ED50 [1, 11]: 0.32 mg/kg
COc1c(C(=O)N[C@@H]2C[C@H]3CC[C@@H](C2)N3Cc2ccccc2)oc2cccnc12 [Example 4, 3-Methoxyfuro[3,2-b]pyridine-2-carboxylic acid (8-benzyl-8-azabicyclo[3.2.1]oct-3β-yl)amide dihydrochloride]	0.12	0.98	2.04	> 40	
COc1c(C(=O)N[C@@H]2C[C@H]3CC[C@@H](C2)N3Cc2ccsc2)sc2ncccc12 [Example 12, 3-Methoxythieno[2,3-b]pyridine-2-carboxylic acid [8-thiophen-3-ylmethyl-8-azabicyclo[3.2.1]oct-3β-yl]amide hydrochloride]	1.25	1.25	2.57	> 40	
COc1c(C(=O)N[C@@H]2C[C@H]3CC[C@@H](C2)N3Cc2ccccc2)sc2nccnc12 [Example 27, 3-Methoxythieno[2,3-b]pyrazine-2-carboxylic acid (8-benzyl-8-azabicyclo[3.2.1]oct-3β-yl)amide hydrochloride]			0.437		ED50 ([3]; po): 9.5 mg/kg; ED50 [1, 10]: 0.27 mg/kg; ED50 [1, 11]: 0.67 mg/kg
COc1cccc(C(=O)N[C@@H]2C[C@H]3CC[C@@H](C2)N3Cc2ccccc2)c1OC [Tropapride, reference compound]					Catalepsy ED50 [4]: 0.015^a mg/kg; Chewing inhibition ED50 ([1]; rat, i.p., 3 or 5 animals): 0.0059^a mg/kg; Normalization ED50 ([1]; rat, i.p., 3 or 5 animals): 0.017^a mg/kg; D2 affinity (pKi) [5]: 10.02
